Laboratory results from US4191760A, “Dibenzodiazepines” (Abbott Laboratories, priority 1978, dated 1980).

Key:
[1] = system: Methamphetamine induced hyperactivity; assay: Antagonism of Methamphetamine induced hyperactivity in rats; format: in vivo, Male Long-Evans black hooded rats; conditions: one hour prior to Methamphetamine 1 mg./kg. intraperitoneal; for ED50: Rattus norvegicus, oral, activity counts at one and two hour intervals, read with sign (+)/(-); for potentiation (+) or antagonism (-) of Methamphetamine: oral 5, 20 and 80 mg./kg., sign printed beside the oral ED50
Protocol: Effectiveness of Drug Compound on Inhibiting Methamphetamine Antagonism in Rats
Male Long-Evans black hooded rats, weighing between 100 and 150 grams, were administered the test drugs at oral doses of 5, 20 and 80 mg./kg. one hour prior to the administration of Methamphetamine at an intraperitoneal dose of 1 mg./kg. Three animals were tested at each dose level. […] Antagonism of Methamphetamine induced hyperactivity was recorded as digital counts received from the photocells at one and two hour intervals. Placebo controls received a volume dose of the 0.5 carboxymethylcellulose vehicle. The data were evaluated by a one-way analysis of variance computer program.
In the results, a (+) indicates a potentiation of Metamphetamine and a (-) is antagonism of Metamphetamine.

[2] = system: brain homovanillic acid (HVA); assay: Effect of Drug Compounds on Brain Level of Homovanillic Acid (HVA); format: in vivo, male Long Evans rats; conditions: brain HVA as ratio to control group (control 1.0); 0.15 mmoles/kg intraperitoneally; brains minus cerebella two or three hours later; ratios greater than 1.6 of practical significance
Protocol: Effect of Drug Compounds on Brain Level of Homovanillic Acid (HVA)
In testing for the effectiveness of the present drug compounds on the brain level of homovanillic acid (HVA), the drugs were administered intraperitoneally to male Long Evans rats (Simonsen) usually as aqueous solutions but in certain cases as suspensions in 0.5% methocel in 0.9% saline. The standard testing dose was 0.15 mmoles/kg body weight. The test and control groups consisted of 3-5 and 5 animals, respectively. The analyses were performed on brains (minus cerebella) removed two or three hours later. In the analyses, standard extraction and fluorimetric methods were used.

SMILES	ED50 [1]	potentiation (+) or antagonism (-) of Methamphetamine [1]	HVA Ratio [2]
Clc1ccc2c(c1)N=C(N1CCCN(C3CC3)CC1)c1ccccc1N2 [IX, 8-Chloro-11-(4-cyclopropyl-1-homopiperazinyl)-5H-dibenzo[b,e][1,4]diazepine]	5 mg/kg	+	0.9
Clc1ccc2c(c1)N=C(N1CCN(CC3CC3)CC1)c1ccccc1N2 [VI, 8-Chloro-11-(4-cyclopropylmethyl-piperazinyl)-5H-dibenzo[b,e][1,4]diazepine]	80 mg/kg	+	3.4
Clc1ccc2c(c1)N=C(N1CCN(C3CC3)CC1)c1ccccc1N2 [VII, 8-Chloro-11-(4-cyclopropyl-1-piperazinyl)-5H-dibenzo[b,e][1,4]diazepine]	60 mg/kg	-	1.1
C#CCN1CCN(C2=Nc3cc(Cl)ccc3Nc3ccccc32)CC1 [VIII, 8-Chloro-11-(4-propargyl-1-piperazinyl)-5H-dibenzo[b,e][1,4]diazepine]	5 mg/kg	+	0.9
CN1CCCN(C2=Nc3cc(Cl)ccc3Nc3ccccc32)CC1 [X, 8-Chloro-11-(4-methyl-1-homopiperazinyl)-5H-dibenzo[b,e][1,4]diazepine]	9 mg/kg	+	1.0
O=CN1CCCN(C2=Nc3cc(Cl)ccc3Nc3ccccc32)CC1 [XI, 8-Chloro-11-(4-formyl-1-homopiperazinyl)-5H-dibenzo[b,e][1,4]diazepine]	80 mg/kg	+	1.0
Clc1ccc2c(c1)N=C(N1CCCN(CC3CC3)CC1)c1ccccc1N2 [XII, 8-Chloro-11-(4-cyclopropylmethyl-1-homopiperazine)-5H-dibenzo[b,e][1,4]diazepine]	80 mg/kg	+	0.9
